Measured values reported in US20250017878A1 (Chronic Airway Therapeutics Limited, priority 2021, published 2025).

Legend:
β-arrestin pathway = assay: Blockade of the β-arrestin pathway, Example 16 / FIG. 16; type: cell-based
asthmatic mice [1] = assay: Chronic treatment with metoprolol and timolol on airway responsiveness in asthmatic mice, Example 9; type: in vivo; conditions: 7 days; metoprolol 20 mg/kg 3× daily s.c., timolol 20 mg/kg in chow; methacholine challenge
Procedure: Airway resistance (Raw) was measured as in Example 1. The results were compared to historical controls as shown in FIG. 9B: Ctrl, no drug treatment, no challenge with methacholine; NTX, no drug treatment, challenged with methacholine.

asthmatic mice [2] = assay: Decrease in airway resistance (Raw) by period of administration, Example 8 / Table 2; type: in vivo
Procedure: (§1) The periods of administration of the agents are 15 minutes, 2 days, and 28 days. […] This strongly supports the concept of combination therapy, such as with an inverse agonist and an agonist.

[3] = system: asthmatic mice (ovalbumin-sensitized and ovalbumin-challenged); assay: Airway responsiveness to methacholine (airway resistance Raw, forced oscillation) in murine model of asthma, Example 1; type: in vivo, Balb/cJ mice; conditions: for airway responsiveness to methacholine provocation (Raw), chronic treatment: drug delivered for 28 days (chow or osmotic minipump); for airway responsiveness to methacholine provocation (Raw), acute treatment: single intravenous bolus 15 minutes before methacholine
Procedure: The results obtained in drug-treated animals were compared with those obtained in vehicle-treated counterparts (controls) in experiments performed in close temporal relationship. […] Mice were sensitized with subcutaneous injection of 25 μg of ovalbumin adsorbed to aluminum hydroxide on protocol days 2, 9, and 16. Subsequently, mice were given 50 μL of saline solution containing 25 μg of ovalbumin intranasally, on a daily basis, from protocol days 23 through 27. A group of ovalbumin-sensitized saline-challenged mice serves as controls for systemic sensitization and respiratory challenges with ovalbumin. Prior to intranasal administrations, mice were sedated with halothane vapor. For the study of Example 1, ovalbumin-sensitized and ovalbumin-challenged mice, and ovalbumin-sensitized and saline-challenged mice will be referred to as asthmatic mice and control mice, respectively. […] To examine the effects of duration of β-adrenergic ligand therapy on the phenotype of the murine model of asthma, the experimental drugs were administered either acutely or chronically to different groups of asthmatic mice. […] These concentrations were chosen based on those producing therapeutic effects in mice in previously published studies. The non-asthmatic mice were fed normal chow. Salbutamol was delivered for 28 days at a dose of 0.5 mg/kg/day using an osmotic minipump (Alzet®, #2004, Durect Corporation, Cupertino, CA). […] Airway resistance (Raw) was measured using the forced oscillation technique. The cellular composition of bronchoalveolar lavage fluid (BALF) was also determined. […] However, it was observed that the degree of airway responsiveness and the number of eosinophils recovered in BALF were lower in non-treated asthmatic mice studied in close temporal relationship with mice receiving acute β-adrenergic antagonist treatments that in those obtained in non-treated asthmatic mice studied concomitantly with mice on chronic β-adrenergic antagonist therapy. […] The complex input impedance of the respiratory system was computed and the value of the real part of respiratory system impedance at 19.75 Hz was taken to reflect the magnitude of airway resistance (Raw). To examine the degree of airway responsiveness of each animal, the values for Raw as a function of methacholine doses were plotted. The largest value for Raw achieved in response to methacholine stimulation was referred to as […]. For mice that achieved a plateau in the methacholine dose-Raw response curve, the ED50 was calculated by linear interpolation using the GraphPad Prism4 (GraphPad Software, Inc.). Results obtained for β-adrenergic drug-treated and non-treated mice were performed using the analysis of variance for multiple groups of a Student's t-test for comparing two groups. The Bonferroni test was used to examine the statistical differences between experimental groups. The effects of acute drug treatments on baseline respiratory system mechanics were assessed using a two-tailed paired t-test. A value of P<0.05 was considered significant.

[4] = system: asthmatic mice (ovalbumin-sensitized, challenged); assay: Combination of carvedilol and salbutamol on airway hyperresponsiveness, Example 4; conditions: 28 days treatment; highest dose of methacholine
Procedure: Mice (Balb/cJ) aged 6 weeks were housed under specific pathogen-free conditions and fed a chicken ovalbumin-free diet. Mice were systemically sensitized with ovalbumin adsorbed to aluminum hydroxide.
To induce airway constriction, a solution containing 150 μg/mL of methacholine was infused using a syringe infusion pump. […] Each methacholine dose was administered until a plateau was reached, during which data were sampled at 1-minute intervals for 3-5 minutes and then averaged.

β2-adrenergic receptor [5] = molecular target: β2-adrenergic receptor (Mus musculus, UniProt P18762); assay: Upregulation of β2-adrenergic receptor density by period of administration, Example 8 / Table 2; type: in vivo, mice; parameters: from tissue
Procedure: as §1

β2-adrenergic receptor [6] = assay: Determination of β-adrenergic receptor density by radioligand (ICYP) binding in lung membranes of treated asthmatic mice, Example 2; type: in vivo; conditions: for Apparent KD (of radioligand ICYP) / Bmax (β-adrenergic receptor density) / βmax (β-adrenergic receptor density): lung membranes; for Apparent KD (of radioligand ICYP): KD of ICYP binding, not of the drug; for Bmax (β-adrenergic receptor density) / βmax (β-adrenergic receptor density): mean ± SEM, n=3-5; for change of the level of the β2-adrenergic receptor, in words: chronic treatment
Procedure: β2-adrenergic receptor numbers were measured in asthmatic mice as follows. […] Mice were sacrificed and lung membranes were isolated as follows. Frozen lung tissue was homogenized in an ice-cold buffer containing 0.32 M sucrose and 25 mM Tris (pH 7.4) using a polytron (Pro 200, Pro Scientific, Inc.). The homogenate was centrifuged at 1000×g for 10 min at 4° C. The resulting supernatant was centrifuged at 40,000×g for 20 min at 4° C. The pellet was suspended in an ice-cold 25 mM Tris-HCl buffer (pH 7.4) and centrifuged at 40,000×g for 20 min at 4° C. The final pellet was suspended in 200 μL of 25 mM Tris-HCl (pH 7.4); membrane protein concentration was determined by BCA protein assay kit. […] The incubation was done at 37° C. for 2 h and terminated by rapid vacuum filtration through glass fiber filters. The filters were washed three times with 250 μL of cold wash buffer (25 mM Tris-HCl, pH 7.4) and the radioactivity determined in a counter. […] Receptor densities are expressed as femtomoles of sites per milligram of protein. Bmax is determined by nonlinear regression of the saturation binding curves. […] Please note that the 15-minute and 28-day time points refer to duration of drug treatment.

asthmatic mice [7] = assay: β-adrenergic receptor drugs at low and high doses on airway resistance, Example 7; type: in vivo; conditions: chronic administration in chow, high and low dose
Procedure: For these experiments, salbutamol was used for chronic administration at 0.5 mg/kg/day with a minipump and for acute administration at 0.15 mg/kg by i.v. bolus 15 minutes prior to challenge. […] Carvedilol was used at a high dose of 2400 ppm in chow or at a low dose of 720 ppm in chow. […] In these diagrams, Ctrl=control mice, non-asthmatic, non-drug treated; NTX=asthmatic mice, non-drug treated; AC=acute administration; 2d=chronic administration for 2 days; 28d=chronic administration for 28 days. The airway resistance (Raw) is plotted as cm H2O ml^−1 s.

[8] = cited from earlier work
[9] = cited from earlier work; remark: listed apart in the source
[10] = system: mucous metaplasia in sensitized/challenged mice; assay: Mucous metaplasia in sensitized/challenged mice (photomicrographs), Example 10; type: in vivo; conditions: sensitized/challenged mice after treatment

Chain of β2-adrenergic receptor (Mus musculus, UniProt P18762) (P18762 whole entry): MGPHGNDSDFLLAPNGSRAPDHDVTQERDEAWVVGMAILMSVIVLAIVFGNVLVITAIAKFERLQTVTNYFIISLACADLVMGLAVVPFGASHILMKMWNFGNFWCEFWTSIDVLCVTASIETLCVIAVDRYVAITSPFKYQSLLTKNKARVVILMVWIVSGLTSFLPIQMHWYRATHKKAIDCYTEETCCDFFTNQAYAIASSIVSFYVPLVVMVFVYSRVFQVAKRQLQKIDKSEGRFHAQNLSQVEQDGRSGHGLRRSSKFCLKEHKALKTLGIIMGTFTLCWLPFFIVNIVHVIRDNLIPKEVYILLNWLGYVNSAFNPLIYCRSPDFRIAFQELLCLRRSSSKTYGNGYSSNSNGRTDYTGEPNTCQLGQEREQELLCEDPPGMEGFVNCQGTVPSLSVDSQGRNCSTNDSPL

Structure (SMILES) | block of the β-arrestin pathway (β-arrestin pathway) | Decreased Raw (asthmatic mice [2]; 15 minutes administration) | Decreased Raw (asthmatic mice [2]; 2 days administration) | Decreased Raw (asthmatic mice [2]; 28 days administration) | airway responsiveness to methacholine provocation (Raw), chronic treatment [3] | airway responsiveness to methacholine provocation (Raw), acute treatment [3] | Increased β2AR density (β2-adrenergic receptor [5]; 15 minutes administration) | Increased β2AR density (β2-adrenergic receptor [5]; 2 days administration) | Increased β2AR density (β2-adrenergic receptor [5]; 28 days administration) | Apparent KD (of radioligand ICYP) (β2-adrenergic receptor [6]; drug treatment 15 Minutes) | Bmax (β-adrenergic receptor density) (β2-adrenergic receptor [6]; drug treatment 15 Minutes) | Apparent KD (of radioligand ICYP) (β2-adrenergic receptor [6]; drug treatment 28 Days) | βmax (β-adrenergic receptor density) (β2-adrenergic receptor [6]; drug treatment 28 Days) | also measured
CC(C)NCC(O)COc1cccc2ccccc12 (stereo not drawn) [propranolol] | did not block the β-arrestin pathway |  |  |  |  |  |  |  |  |  |  |  |  | 
COCCc1ccc(OCC(O)CNC(C)C)cc1 (stereo not drawn) [metoprolol] |  |  |  |  |  |  |  |  |  |  |  |  |  | airway hyperresponsiveness after chronic treatment (asthmatic mice [1]): effective in reducing airway hyperresponsiveness in asthmatic mice
COc1ccccc1OCCNCC(O)COc1cccc2[nH]c3ccccc3c12 (stereo not drawn) [Carvedilol, carvedilol] | did not block the β-arrestin pathway | no | no | yes | reduced the responsiveness of asthmatic mice to methacholine provocation | enhanced the airway responsiveness in the asthmatic mice | no | no | yes | (565.2 ± 192.8) pM | 86.3 ± 19.42 femtomoles of sites per milligram of protein | (1444.0 ± 202.0) pM | 904.1 ± 43.46 femtomoles of sites per milligram of protein | bronchoconstriction / airway hyperresponsiveness to allergen and methacholine challenge [4]: higher bronchoconstriction than these treatments but less than the non-drug treated sensitized and challenged (NTX S/C) mice; increase of the level of β2-adrenergic receptors over the non-treated mice (β2-adrenergic receptor [6]; chronic administration, versus untreated methacholine-challenged asthmatic mice): over 10 fold; protection from airway hyperresponsiveness (asthmatic mice [7]): providing protection from airway hyperresponsiveness with chronic administration
CC(C)(C)NCC(O)c1cc(O)cc(O)c1 (stereo not drawn) [terbutaline] |  |  |  |  |  |  |  |  |  |  |  |  |  | increase of bioavailability by the oral component ([8]; from an MDI): 6.7%; absorption through the lung ([8]; healthy smokers versus healthy nonsmokers): more rapidly in healthy smokers than in healthy nonsmokers
CCCC1O[C@@H]2C[C@H]3[C@@H]4CCC5=CC(=O)C=C[C@]5(C)[C@H]4[C@@H](O)C[C@]3(C)[C@]2(C(=O)CO)O1 (stereo partly drawn) [budesonide] |  |  |  |  |  |  |  |  |  |  |  |  |  | plasma clearance of the two enantiomers per kilogram bodyweight, children with asthma higher than healthy adults ([9]; 6 children with asthma versus 11 healthy adults): about 50%; elimination half-life ([9]; in vivo): 2.8 ± 1.1 h; plasma clearance ([9]; in vivo): 84 ± 27 L/h; plasma clearance relative to average clearance of prednisolone ([9]; in vivo): about 10 fold; systemic availability of the swallowed fraction ([9]; in vivo): 10.7±4.3%
CC(C)(C)NC[C@H](O)COc1nsnc1N1CCOCC1 [timolol] |  |  |  |  |  |  |  |  |  |  |  |  |  | airway hyperresponsiveness after chronic treatment (asthmatic mice [1]): effective in reducing airway hyperresponsiveness in asthmatic mice
CC(C)(C)NCC(O)c1ccc(O)c(CO)c1 (stereo not drawn) [Salbutamol, salbutamol] |  | yes | no | no | no protection was observed | reduced the level of airway responsiveness to methacholine provocation and the level of airway resistance | yes | no | no | (228.8 ± 33.07) pM | 256.5 ± 29.24 femtomoles of sites per milligram of protein | (225.4 ± 41.79) pM | 97.0 ± 23.02 femtomoles of sites per milligram of protein | bioavailability of inhaled drug ([8]; 10 patients with cystic fibrosis versus healthy adults): greater than that in healthy adults; change of the level of the β2-adrenergic receptor, in words (β2-adrenergic receptor [6]): slight decrease
C=CCc1ccccc1OCC(O)CNC(C)C (stereo not drawn) [Alprenolol, alprenolol] | did not block the β-arrestin pathway | yes | no | no | provides no benefit upon chronic administration | airway responsiveness was diminished | yes | no | no | (453.6 ± 86.33) pM | 299.5 ± 12.19 femtomoles of sites per milligram of protein | (290.9 ± 55.07) pM | 179.2 ± 53.05 femtomoles of sites per milligram of protein | change of the level of the β2-adrenergic receptor, in words (β2-adrenergic receptor [6]): slight decrease of the level of the 2-adrenergic receptor; mucous metaplasia [10]: no improvement in mucous metaplasia
C[C@@H]1C[C@H]2[C@@H]3C[C@H](F)C4=CC(=O)C=C[C@]4(C)[C@@]3(F)[C@@H](O)C[C@]2(C)[C@@]1(O)C(=O)SCF [fluticasone] |  |  |  |  |  |  |  |  |  |  |  |  |  | first-pass hepatic metabolism of the systemically absorbed drug ([9]; inhaled drug): almost complete
OCc1cc(C(O)CNCCCCCCOCCCCc2ccccc2)ccc1O (stereo not drawn) [salmeterol] |  |  |  |  |  |  |  |  |  |  |  |  |  | time in which the majority of a dose is eliminated in the feces ([8]; in vivo): ≤ 72 h
